Legend:
[1] = tested on: C57B1/6 mice; assay: Glucose lowering effects in oral glucose tolerance test (OGTT); type: in vivo, mouse; settings: for Glucose 20 Minute / Glucose 40 Minute / Glucose 60 Minute / Baseline Adjusted AUC (glucose) / Glucose Cmax / Glucose Tmax / Glucose 0 Minute: OGTT, 10 mg/kg oral, Mean ± SEM; for Glucose 20 Minute: 20 min after dextrose; for Glucose 40 Minute: 40 min after dextrose; for Glucose 60 Minute: 60 min after dextrose; for Glucose 0 Minute: baseline before 3 g/kg dextrose
Experimental: The test compound is formulated by adding a vehicle of 1% hydroxyethylcellulose, 0.25% Tween® 80 w/antifoam 0.05% to preweighed test compound to make a 1 mg/ml solution. The mixture is probe sonicated for approximately 1 minute. A stir bar is added, and the resulting suspension is stirred continuously throughout dosing.
One of two sets of single housed C57B1/6 mice are weighed and body weights used to determine study groups (n=5), within a working range of 26-30 g. After grouping, the mice are orally gavaged with 10 ml/kg test compound preparation or vehicle, thirty seconds apart. […] Both sets of mice are then fasted overnight by removing access to food, late afternoon before test day. The following morning, the remaining mice, are weighed and bled (via tail snip) for glucose. Study groups (n=5) are determined using fasted glucose values, within a working range of 80-100 mg/dl. After grouping, the mice are orally gavaged using the same protocol as the previous day.
At eight and eighteen hours after each respective compound treatment is started, a baseline blood sample is taken for measuring glucose (from the first animal). The animal is then immediately given an oral dose of 50% dextrose (Hospira®) at 3 g/kg. Blood samples are taken for glucose, exactly thirty seconds apart, by tail vein so that blood is collected in each animal at 20, 40 and 60 minutes after the dextrose dose.

[2] = target: T1, mouse SGLT1 (Mus musculus, UniProt Q8C3K6); assay: Sodium-dependent 14C-AMG uptake assay in CHO-K1 cells expressing mouse SGLT1; type: cell-based; settings: n=6
T1 sequence (Q8C3K6 1-665): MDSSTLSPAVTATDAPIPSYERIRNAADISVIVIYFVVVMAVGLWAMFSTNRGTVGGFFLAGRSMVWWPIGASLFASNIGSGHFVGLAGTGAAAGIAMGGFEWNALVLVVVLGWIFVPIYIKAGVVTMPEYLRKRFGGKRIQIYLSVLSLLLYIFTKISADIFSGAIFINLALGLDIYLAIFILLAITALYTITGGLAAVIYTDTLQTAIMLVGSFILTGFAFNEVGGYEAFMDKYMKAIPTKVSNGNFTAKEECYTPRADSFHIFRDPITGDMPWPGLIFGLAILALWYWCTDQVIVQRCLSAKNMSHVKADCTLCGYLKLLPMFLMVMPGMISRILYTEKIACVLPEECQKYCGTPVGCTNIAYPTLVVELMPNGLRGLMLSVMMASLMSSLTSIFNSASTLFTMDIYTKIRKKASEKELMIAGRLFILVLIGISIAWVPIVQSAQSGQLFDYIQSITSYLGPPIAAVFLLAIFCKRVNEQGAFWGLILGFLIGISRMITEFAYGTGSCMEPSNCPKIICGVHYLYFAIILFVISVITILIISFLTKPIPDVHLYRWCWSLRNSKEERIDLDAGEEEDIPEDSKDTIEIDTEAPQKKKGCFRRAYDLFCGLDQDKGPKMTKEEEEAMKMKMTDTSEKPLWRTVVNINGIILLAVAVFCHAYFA
From the text: (§1) The cDNA encoding human SGLT1 (slc5a1, NM_000343) and mouse SGLT1 (slc5a1, NM_019810.4) are purchased from Openbiosystems. The cDNA is cloned into pcDNA3.1+ for mammalian expression and is stably transfected into Chinese hamster ovary (CHO)-K1 cells using standard mammalian transfection procedures. An SGLT-expressing sub-clone of each over-expressing cell line is selected based on resistance to neomycin (Geneticin, Invitrogen) and activity in the ^14C-a-methyl-D-glucopyranoside (^14C-AMG) uptake assay (see below). Stable SGLT-expressing cells are maintained using standard cell culture techniques.
(§2) The SGLT activity is measured as sodium-dependent ^14C-AMG uptake in the above cell lines described as follows. One hundred […] of culture medium containing 30,000 cells are seeded to each well of a 96-well BioCoat poly-D-lysine plate (Becton Dickson) and cultured at 37° C. overnight. The culture medium is aspirated and cells are washed twice with […] of Reaction Buffer (140 mM NaCl, 2 mM KCl, 1 mM CaCl2, MgCl2, and 14 mM N-2-hydroethylpiperrazine-N′-2-ethanesulfonic acid (Hepes), pH 7.5). The excess buffer is tapped out onto paper towels. Thirty-five […] of Reaction Buffer are added to each well. […] After mixing, the scintillation signal in the plate is counted in a MicroBeta (PerkinElmer). […]

[3] = target: T2, human SGLT1 (Homo sapiens, UniProt P13866); assay: Sodium-dependent 14C-AMG uptake assay in CHO-K1 cells expressing human SGLT1; type: cell-based; settings: n=9
T2 sequence (P13866 1-664): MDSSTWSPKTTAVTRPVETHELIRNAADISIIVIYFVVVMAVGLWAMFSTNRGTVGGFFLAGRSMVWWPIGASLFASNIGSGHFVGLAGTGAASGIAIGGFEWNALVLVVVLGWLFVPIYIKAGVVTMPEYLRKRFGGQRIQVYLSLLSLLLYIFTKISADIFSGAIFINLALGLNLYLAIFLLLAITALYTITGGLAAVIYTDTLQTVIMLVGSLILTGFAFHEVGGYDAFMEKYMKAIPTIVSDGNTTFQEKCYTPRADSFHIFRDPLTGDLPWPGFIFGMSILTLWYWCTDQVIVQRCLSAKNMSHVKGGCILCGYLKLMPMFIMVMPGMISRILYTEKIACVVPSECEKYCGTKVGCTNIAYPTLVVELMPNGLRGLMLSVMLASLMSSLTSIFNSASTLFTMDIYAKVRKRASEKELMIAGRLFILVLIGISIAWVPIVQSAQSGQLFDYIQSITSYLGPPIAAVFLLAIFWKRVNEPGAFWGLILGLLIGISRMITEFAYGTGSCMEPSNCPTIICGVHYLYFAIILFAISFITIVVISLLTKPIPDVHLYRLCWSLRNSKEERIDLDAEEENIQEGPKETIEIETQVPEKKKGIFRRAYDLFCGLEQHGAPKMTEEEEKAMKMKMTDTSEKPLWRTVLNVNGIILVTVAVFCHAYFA
From the text: as §1, §2

## Cc1cccc2c1c(Cc1ccc(/C=C/CCN3CCCC4(CCN(C(=O)CNC(=O)NCC(C)C)CC4)C3)cc1)cn2[C@@H]1O[C@H](CO)[C@@H](O)[C@H](O)[C@H]1O [Example 1, 1-isobutyl-3-[2-[4-[(E)-4-[4-[[4-methyl-1-[(2R,3R,4S,5S,6R)-3,4,5-trihydroxy-6-(hydroxymethyl)tetrahydropyran-2-yl]indol-3-yl]methyl]phenyl]but-3-enyl]-4,9-diazaspiro[5.5]undecan-9-yl]-2-oxo-ethyl]urea]
[1]; 8 hrs post dose
  Glucose 20 Minute: 119.1 ± 11.4 mg/dL
  Glucose 40 Minute: 127.7 ± 8.32 mg/dL
  Glucose 60 Minute: 132.6 ± 8.85 mg/dL
  Baseline Adjusted AUC (glucose): 2752 ± 507 mg/dL
  Glucose Cmax: 134.7 ± 8.31 mg/dL
  Glucose Tmax: 48 ± 8 min
  Glucose 0 Minute: 70.2 ± 5.47 mg/dL
[1]; 18 hrs post dose
  Glucose 20 Minute: 116.1 ± 2.71 mg/dL
  Glucose 40 Minute: 130.7 ± 4.47 mg/dL
  Glucose 60 Minute: 124.1 ± 1.42 mg/dL
  Baseline Adjusted AUC (glucose): 1792 ± 254 mg/dL
  Glucose Cmax: 132.7 ± 3.27 mg/dL
  Glucose Tmax: 48 ± 4.9 min
  Glucose 0 Minute: 87.7 ± 3.36 mg/dL
[1]; normal glycemic C57B1/6 mouse, eight or eighteen hours after administration
  glucose excursion after oral bolus of 50% dextrose: decrease
[2]
  IC50: 13.6 ± 7.3 nM
[3]
  IC50: 17.4 ± 14.6 nM
